Reference: a melting point compilation (Tetko et al.; mined from patent text by program, amines drawn as free bases though some values may be those of a salt)

SMILES | melting point [°C]
Cc1c(SCCN2CCOCC2)ccnc1CSc1nc2ccccc2s1 | 91 to 93
CCOc1ccccc1NC=C1C(=O)N(c2ccc(S(=O)(=O)N(CC)CC)cc2)N=C1C | 170
O=C(O)CNC(=O)Nc1cccc(C(=O)OCc2ccccc2)c1 | 168
CC(Cc1ccc(S(=O)(=O)NC(=O)NC2CCCCC2)cc1)NC(=O)N1Cc2ccccc2C1=O (stereo not drawn) | 197 to 198
Cn1nc(-c2ccccc2O)c2sccc21 | 112 to 113
CC(C)Cn1c(CNC(=O)OC(C)(C)C)c(-c2ccccc2)c2cc(/C=C/C(N)=O)ccc2c1=O | 146 to 147
Ic1cnc2c(c1)NCCN2 | 126 to 128
Cn1c(COc2ccc(CC(OCc3ccc(F)cc3)C(=O)O)cc2)nc2ccc(Oc3ccc(C45CC6CC(CC(C6)C4)C5)cc3)cc21 (stereo not drawn) | 148 to 149
Cc1ncsc1C(C)(O)c1ccoc1 (stereo not drawn) | 102 to 104
N#Cc1c(N2CCNCC2)c(F)cc2c(=O)c(C(=O)O)cn(C3CC3)c12 | > 300
O=C(c1ccccc1)N(CCCCn1ccnc1)C1=Nc2cccc3cccc1c23 | 139 to 140
COc1cc(-c2cnc3[nH]cc(C(=O)NCC(C)(C)CO)c3n2)cc(OC)c1OC | 224 to 225
COc1ccc2nc3ccc(C(=O)OCOC(=O)C(C)(C)C)cn3c(=O)c2c1 | 129 to 131
CC(=O)N(C[C@H]1CN(c2ccc(N3CCC4(CC3)OCCO4)c(F)c2)C(=O)O1)C(C)=O | 200 to 202
O=C1C(=Cc2cccs2)CCc2cc(OCCc3c[nH]cn3)ccc21 | 60 to 63
N#Cc1c(N2CCc3ccccc3CC2)nc(CSc2ccccc2)[nH]c1=O | 189 to 194
Clc1ccc2c(c1)CCc1cccnc1C2=C1CCNCC1 | 154 to 155
O=C(OCCO)c1ccc(C(=O)OCCO)cc1 | 108 to 110
NC(=O)N(O)CCn1ccc2ccccc21 | 57 to 60
CCc1noc(-c2cn(-c3ncc(OC(C)C)cn3)cn2)n1 | 156 to 157
CC(N)C(=O)Nc1ccc([N+](=O)[O-])cc1C(=O)c1ccccc1Cl (single isomer, unassigned; (+)) | 132
CNC(=NS(C)(=O)=O)Nc1ccc(C2=NNC(=O)CC2C)cc1 (stereo not drawn) | 228 to 230
O=C1c2cc(OCc3ccccn3)ccc2CC1Cc1ccccc1 (stereo not drawn) | 94 to 97

SMILES | melting point [°C]
Oc1ccc(-c2cc3cc(O)ccc3o2)c(Br)c1 | 195
Nc1ccc(C(=O)Nc2ccc(-n3nc(C(F)(F)F)cc3C(F)(F)F)cc2)cc1 | > 240
OC1(CCc2ccc3[nH]cc(C4CCNCC4)c3c2)CCCC1 | 190 to 191
CC(=O)Nc1c(C(=O)c2cccc(C(=O)O)c2)[nH]c2cc(Cl)ccc12 | > 290
Cc1c(NC(=O)CC(C)(C)C)cc2c(c1C)OC(C)(C)C2(O)c1ccc2ccccc2c1 (stereo not drawn) | 142 to 144
Cc1ccc([N+](=O)[O-])c(C=C(C(=O)O)C(=O)O)c1 | 180 to 182
COc1ccc2c(c1)C(Cl)c1ccccc1CO2 (stereo not drawn) | 133 to 134
O=C(NOCCO)c1cc(Cl)c(F)c(F)c1Nc1ccc(I)cc1F | 180
O=P(O)(O)C(O)(Cc1ccc(Cl)cc1)P(=O)(O)O | 219
CCOC(=O)NN=Cc1ccnc2ccccc12 | 161
COc1cc2c(cc1-c1ccccc1)CCCc1c-2nc2ccc(F)cc2c1C(=O)O | > 300
COCCNc1cc(Cl)nc(-c2ccc(C)cc2)n1 | 141 to 144
CS(=O)c1nc2cc(Oc3ccc(Cl)cc3Cl)c(Cl)cc2[nH]1 (stereo not drawn) | 206 to 208
CC(C)(C)OC(=O)N1CCc2c(Br)cccc2C1 | 75.6 to 80.4
CN1C(=O)[C@H](NC(=O)c2cc3ccccc3[nH]2)N=C(c2ccccc2)c2ccccc21 | 167 to 177
CCOc1cc(-c2cc(C(F)F)n3ncc(C(=O)O)c3n2)ccc1C(F)(F)F | 247
COC(=O)c1nc(-c2ccc(O)nc2)cc(N)c1Cl | 251 to 252
CCCCCCCCCCCCCCCCN1CCN(c2ccc(C=CC(=O)O)cc2)CC1 | 251 to 253
COc1ccc2c(c1)c1c3c(c(-c4c(Cl)cccc4OC)cc1n2CCCO)C(=O)NC3=O | 224 to 227
CCCc1ccc(S(=O)(=O)NN2CCN(C)CC2)cc1 | 153 to 154
FC(F)=C(F)CCSc1nc(-c2ccc(Cl)cc2)no1 | 49 to 52
COc1ccc(-c2cc(C)cn2-c2ccc(S(N)(=O)=O)cc2)cc1Cl | 160 to 163
NC(=O)CCC(C(N)=O)c1ccc(F)cc1 (stereo not drawn) | 154 to 157

SMILES | melting point [°C]
O=C(O)c1ccnc2[nH]ccc12 | > 300
COCc1cccc2sc(C(=O)O)cc12 | 212 to 214
CCCc1nn(C)c2c(NCc3ccc(OC)c(Cl)c3)nc(CCC(=O)O)nc12 | 178
CNC(=O)C1CCc2ccccc21 (stereo not drawn) | 107 to 109
O=C(Nc1cccc2[nH]ccc12)c1cc([N+](=O)[O-])ccc1O | > 260
CN1C(=O)N(c2ccc(C#N)c(C(F)(F)F)c2)C(=O)C1(C)C | 158
O=C(CC1CCCCC1=O)c1ccc([N+](=O)[O-])cc1 (stereo not drawn) | 61 to 63
O=Cc1c2ccccc2c(Cl)c2ccc(Cl)cc12 | 176
CCCC=COC1OC(CO)C(O)C(O)C1NC(C)=O (stereo not drawn) | 146 to 148
COc1ccc(CCCN2C=CC=C3C2=Nc2ccc(Cl)cc2S(=O)(=O)N3C)cc1 | 62 to 65
CC(C)(C)N[C@@H]1Cc2cccc(O)c2C[C@H]1O (relative stereo) | 97 to 102
CCc1cnc2ccnn2c1O | 247 to 248
CCOC(=O)C1=C(CO)NC(C)=C(C(=O)OCCO)C1c1ccccc1[N+](=O)[O-] (stereo not drawn) | 167 to 169
CCOC(=O)C(=NOC)c1nc(N)cc(Cl)n1 | 136 to 142
CCCCc1c(C(=O)OCC)cc(O)c2c(OC)cccc12 | 80 to 82
CSCC12CCC(O)C=C1CCC1C2CCC2(C)C(O)CCC12 (stereo not drawn) | 85 to 87
CCOC(=O)CN(C#N)Cc1cc(-n2cc(C)nc2C)cc(C)c1N | 135 to 140
Cc1ccc(COC2C(Sc3ccccc3)OC(C)C(O)C2O)cc1 (stereo not drawn) | 146 to 147
C=CCn1c2c(ccc1=O)C(NCCc1ccccc1)CCC2 (stereo not drawn) | 60 to 62
[N-]=[N+]=Nc1nc2c(N)ncnc2n1C1CC(O)C(CO)O1 (stereo not drawn) | 177 to 179
CC(C)c1cc(C(C)C)c(C=CCC(=O)O)c(C(C)C)c1 | 201 to 203
O=C1CCC(c2c[nH]c3cccc(F)c23)CC1 | 104 to 106

Next, values leading:

melting point [°C] | SMILES
72 to 73 | CC(=O)NCCc1ccc(CO)cc1
146 to 148 | CNc1nc(-c2cccc(NC(=O)c3ccccc3)c2)c2cc(OC)c(OC)cc2n1
83 to 85 | CN1CCN(C(=O)[C@H](CC(N)=O)Nc2ccc(OCc3ccccc3)cc2OCc2ccccc2)CC1
104 to 106 | O=C(c1nc2ccccc2n1Cc1ccc(F)cc1)C1CCN(CCC2(Cc3ccc(C(F)(F)F)cc3)CCN(Cc3ccccc3)C2=O)CC1 (stereo not drawn)
253 to 255 | COc1cnnc(O)c1
194 to 195 | Cc1ccc(-c2cc(Br)c3c(c2)CCC(=O)N3)c(C)n1
160 to 162 | O=C(O)c1ccc(CN(Cc2ccc(C(F)(F)P(=O)(O)O)c(Br)c2)S(=O)(=O)c2ccccc2)cc1
95 | Clc1c(Cl)c(Cl)c2c(nc(Cl)n2COCCOCc2ccccc2)c1Cl
124 to 127 | CN(Cc1ccccc1)S(=O)(=O)CC(N)=O
154 to 155 | O=c1c2cccc3ncc(c(=O)n1CCCCNS(=O)(=O)CC(F)(F)F)n32
140 | CS(=O)(=O)Nc1ccc([N+](=O)[O-])cc1SC1CCCCC1
201 to 203 | Cc1ccc(C(=O)Nc2c[nH]nc2C(=O)NCCC#N)cn1
175 to 179 | CCCc1nc(C=NNC(=S)SC)c(C)[nH]1
100 to 101 | CC(C)CN1C(=O)C2CC2(c2ccc(N)cc2)C1=O (stereo not drawn)
118 | CC(C)(C)OC(=O)NCC(=O)NCCCN1CCN(CCCNc2cccc3c2C(=O)c2ccccc2C3=O)CC1
74 | CCOC(=O)CCc1cnn2c(N(C)c3ccccc3)ncnc12
149 | CCOC(=O)C1=C(C)Nc2nc(N(C)C)nc(N(C)C)c2C1c1cccc([N+](=O)[O-])c1 (stereo not drawn)
> 250 | Cc1ccc2cc(CC(=O)O)c(=O)[nH]c2n1

melting point [°C] | SMILES
156 to 157 | O=C(NC1CCCc2ccccc21)c1ccc([N+](=O)[O-])cc1 (stereo not drawn)
247 to 248 | COCCN1C(=O)C(C)(C)C(=O)Nc2ccc(C#N)cc21
390 | CC(=O)Nc1ccc2c(c1)[nH]c(=O)c(=O)n2C
142 to 144 | O=C1CCC(N2CCN(c3ccccn3)CC2)CC1
197 to 200 | O=S(=O)(Nc1ccccc1OC(c1ccncc1)C1CCNCC1)c1ccc2cc(Br)ccc2c1 (stereo not drawn)
129 to 130 | CN(C)C(=O)Nc1ccc(OCCCC(=O)c2ccccc2)c(Cl)c1
164 to 166 | O=c1[nH]ncc2ccc(OCC3CO3)cc12 (stereo not drawn)
129 to 130 | CCOc1nn(Cc2ccc(OCc3nc(-c4ccco4)oc3C)cc2)cc1CCC(=O)O
68 to 70 | OC(COc1cccc2ccccc12)CN1CCCC1 (stereo not drawn)
240 to 242 | COC(=O)c1ccc2c(nc(C)n2C)c1C1=NC(C)(C(C)C)C(=O)N1 (stereo not drawn)
108 to 110 | CC[C@@H](c1ccccc1)N(Cc1ccc(CN)cc1)S(=O)(=O)c1ccc(Cl)cc1
211 to 213 | CC(=O)N[C@@H](CCc1ccc([N+](=O)[O-])cc1)C(=O)O
177 to 178 | COc1ccc(S(=O)(=O)N2CCc3cccc(-c4ccc([N+](=O)[O-])cc4)c32)cc1
110 | CC1(C)COc2ccc(F)cc2C(O)(c2ccccn2)C1 (stereo not drawn)
245 to 247 | CN1C(=O)C(c2ccncc2)(c2cccc(O)c2)N=C1N (stereo not drawn)
239 | Cc1cc(Nc2ccc(Cl)cc2)nc(-c2cccc(Cl)n2)n1
210 to 240 | O=C(O)c1ccccc1-c1ccc(CNc2nc(Cl)nc3ccc(Cl)cc23)cc1
